According to US20040063662A1, “Selenophene anti-tumor agents” (priority 1996, published 2004):

What was measured:
CCRF-CEM = assay: NCI human tumor cell panel: CCRF-CEM (Leukemia); assay type: cell-based
RPMI-8226 = assay: NCI human tumor cell panel: RPMI-8226 (Leukemia); assay type: cell-based
SR = assay: NCI human tumor cell panel: SR (Leukemia); assay type: cell-based
HOP-62 = assay: NCI human tumor cell panel: HOP-62 (Non-Small Cell Lung Cancer); assay type: cell-based; conditions: HOP-62, read-out: Log10 TGI (converted)
NCI-H23 = assay: NCI human tumor cell panel: NCI-H23 (Non-Small Cell Lung Cancer); assay type: cell-based
NCI-H460 = assay: NCI human tumor cell panel: NCI-H460 (Non-Small Cell Lung Cancer); assay type: cell-based; conditions: NCI-H460, read-out: Log10 TGI (converted)
SW-620 = assay: NCI human tumor cell panel: SW-620 (Colon Cancer); assay type: cell-based
SF-295 = assay: NCI human tumor cell panel: SF-295 (CNS Cancer); assay type: cell-based
SF-539 = assay: NCI human tumor cell panel: SF-539 (CNS Cancer); assay type: cell-based
SNB-75 = assay: NCI human tumor cell panel: SNB-75 (CNS Cancer); assay type: cell-based
LOX IMVI = assay: NCI human tumor cell panel: LOX IMVI (Melanoma); assay type: cell-based
M14 = assay: NCI human tumor cell panel: M14 (Melanoma); assay type: cell-based
SK-MEL-2 = assay: NCI human tumor cell panel: SK-MEL-2 (Melanoma); assay type: cell-based
SK-MEL-5 = assay: NCI human tumor cell panel: SK-MEL-5 (Melanoma); assay type: cell-based
UACC-257 = assay: NCI human tumor cell panel: UACC-257 (Melanoma); assay type: cell-based
UACC-62 = assay: NCI human tumor cell panel: UACC-62 (Melanoma); assay type: cell-based
IGROV1 = assay: NCI human tumor cell panel: IGROV1 (Ovarian Cancer); assay type: cell-based
OVCAR-4 = assay: NCI human tumor cell panel: OVCAR-4 (Ovarian Cancer); assay type: cell-based; conditions: OVCAR-4, read-out: Log10 TGI (converted)
OVCAR-5 = assay: NCI human tumor cell panel: OVCAR-5 (Ovarian Cancer); assay type: cell-based
OVCAR-8 = assay: NCI human tumor cell panel: OVCAR-8 (Ovarian Cancer); assay type: cell-based
786-0 = assay: NCI human tumor cell panel: 786-0 (Renal Cancer); assay type: cell-based
A498 = assay: NCI human tumor cell panel: A498 (Renal Cancer); assay type: cell-based
SN12C = assay: NCI human tumor cell panel: SN12C (Renal Cancer); assay type: cell-based
UO-31 = assay: NCI human tumor cell panel: UO-31 (Renal Cancer); assay type: cell-based
DU-145 = assay: NCI human tumor cell panel: DU-145 (Prostate Cancer); assay type: cell-based
MCF7 = assay: NCI human tumor cell panel: MCF7 (Breast Cancer); assay type: cell-based
MCF7/ADR-RES = assay: NCI human tumor cell panel: MCF7/ADR-RES (Breast Cancer); assay type: cell-based
HS 578T = assay: NCI human tumor cell panel: HS 578T (Breast Cancer); assay type: cell-based
MDA-MB-435 = assay: NCI human tumor cell panel: MDA-MB-435 (Breast Cancer); assay type: cell-based
MDA-N = assay: NCI human tumor cell panel: MDA-N (Breast Cancer); assay type: cell-based
BT-549 = assay: NCI human tumor cell panel: BT-549 (Breast Cancer); assay type: cell-based
HOP-92 = assay: NCI human tumor cell panel: HOP-92 (Non-Small Cell Lung Cancer)
[1] = read-out: Log10 GI50 (converted)
[2] = read-out: Log10 TGI (converted)

Question: For OCc1ccc(-c2ccc(-c3ccc[se]3)s2)[se]1 [compound 676631], which GI50 (CCRF-CEM; [1]) is on record?
Answer: > 100 µM

Question: And the IC (TGI) (CCRF-CEM; [2])?
Answer: > 100 µM

Question: What about the GI50 (RPMI-8226; RPMI-8226, read-out: Log10 GI50 (converted)) of the same compound?
Answer: > 100 µM

Question: What about the IC (TGI) (RPMI-8226; RPMI-8226, read-out: Log10 TGI) of the same compound?
Answer: > 100 µM

Question: What about the GI50 (SR; [1]) of the same compound?
Answer: > 100 µM

Question: And the IC (TGI) (SR; [2])?
Answer: > 100 µM

Question: And the IC (TGI) (HOP-62)?
Answer: > 100 µM

Question: What about the GI50 (NCI-H23; NCI-H23, read-out: Log10 GI50 (converted)) of the same compound?
Answer: 16.6 µM

Question: What about the IC (TGI) (NCI-H23; NCI-H23, read-out: Log10 TGI (converted)) of the same compound?
Answer: 38.9 µM

Question: And the IC (TGI) (NCI-H460)?
Answer: > 100 µM

Question: What about the GI50 (SW-620; SW-620, read-out: Log10 GI50 (converted)) of the same compound?
Answer: 355 nM

Question: And the IC (TGI) (SW-620; SW-620, read-out: Log10 TGI (converted))?
Answer: > 100 µM

Question: And the GI50 (SF-295; SF-295, read-out: Log10 GI50 (converted))?
Answer: 55 µM

Question: What about the IC (TGI) (SF-295; SF-295, read-out: Log10 TGI (converted)) of the same compound?
Answer: > 100 µM

Question: What about the GI50 (SF-539; SF-539, read-out: Log10 GI50 (converted)) of the same compound?
Answer: 12.3 µM

Question: What about the IC (TGI) (SF-539; SF-539, read-out: Log10 TGI (converted)) of the same compound?
Answer: 57.5 µM

Question: What about the GI50 (SNB-75; SNB-75, read-out: Log10 GI50 (converted)) of the same compound?
Answer: 41.7 µM

Question: And the IC (TGI) (SNB-75; SNB-75, read-out: Log10 TGI (converted))?
Answer: > 100 µM

Question: And the GI50 (LOX IMVI; [1])?
Answer: 15.1 µM

Question: What about the IC (TGI) (LOX IMVI; [2]) of the same compound?
Answer: 36.3 µM

Question: And the GI50 (M14; M14, read-out: Log10 GI50 (converted))?
Answer: 20 µM

Question: And the IC (TGI) (M14; M14, read-out: Log10 TGI (converted))?
Answer: > 100 µM

Question: What about the GI50 (SK-MEL-2; SK-MEL-2, read-out: Log10 GI50 (converted)) of the same compound?
Answer: > 100 µM

Question: And the IC (TGI) (SK-MEL-2; SK-MEL-2, read-out: Log10 TGI (converted))?
Answer: > 100 µM

Question: And the GI50 (SK-MEL-5; SK-MEL-5, read-out: Log10 GI50 (converted))?
Answer: > 100 µM

Question: What about the IC (TGI) (SK-MEL-5; SK-MEL-5, read-out: Log10 TGI (converted)) of the same compound?
Answer: > 100 µM

Question: And the GI50 (UACC-257; UACC-257, read-out: Log10 GI50 (converted))?
Answer: 31.6 nM

Question: What about the IC (TGI) (UACC-257; UACC-257, read-out: Log10 TGI (converted)) of the same compound?
Answer: > 100 µM

Question: What about the GI50 (UACC-62; UACC-62, read-out: Log10 GI50 (converted)) of the same compound?
Answer: 26.3 nM

Question: And the IC (TGI) (UACC-62; UACC-62, read-out: Log10 TGI (converted))?
Answer: 0.115 µM

Question: And the GI50 (IGROV1; IGROV-1, IGROV1, read-out: Log10 GI50 (converted))?
Answer: 81.3 nM

Question: And the IC (TGI) (IGROV1; IGROV-1, IGROV1, read-out: Log10 TGI (converted))?
Answer: 0.603 µM

Question: And the IC (TGI) (OVCAR-4)?
Answer: > 100 µM

Question: And the GI50 (OVCAR-5; OVCAR-5, read-out: Log10 GI50 (converted))?
Answer: 31.6 nM

Question: What about the IC (TGI) (OVCAR-5; OVCAR-5, read-out: Log10 TGI (converted)) of the same compound?
Answer: 0.209 µM

Question: And the GI50 (OVCAR-8; OVCAR-8, read-out: Log10 GI50 (converted))?
Answer: 24.5 µM

Question: What about the IC (TGI) (OVCAR-8; OVCAR-8, read-out: Log10 TGI (converted)) of the same compound?
Answer: > 100 µM

Question: And the GI50 (786-0; 786-0, read-out: Log10 GI50 (converted))?
Answer: > 100 µM

Question: What about the IC (TGI) (786-0; 786-0, read-out: Log10 TGI (converted)) of the same compound?
Answer: > 100 µM

Question: What about the GI50 (A498; A498, read-out: Log10 GI50 (converted)) of the same compound?
Answer: 27.5 nM

Question: And the IC (TGI) (A498; A498, read-out: Log10 TGI (converted))?
Answer: 0.0832 µM

Question: And the GI50 (SN12C; [1])?
Answer: > 100 µM

Question: What about the IC (TGI) (SN12C; [2]) of the same compound?
Answer: > 100 µM

Question: And the GI50 (UO-31; UO-31, read-out: Log10 GI50 (converted))?
Answer: > 100 µM

Question: And the IC (TGI) (UO-31; UO-31, read-out: Log10 TGI (converted))?
Answer: > 100 µM

Question: What about the GI50 (DU-145; DU-145, read-out: Log10 GI50 (converted)) of the same compound?
Answer: 20 µM

Question: And the IC (TGI) (DU-145; DU-145, read-out: Log10 TGI (converted))?
Answer: 77.6 µM

Question: What about the GI50 (MCF7; MCF7, read-out: Log10 GI50 (converted)) of the same compound?
Answer: 93.3 nM

Question: What about the IC (TGI) (MCF7; MCF7, read-out: Log10 TGI (converted)) of the same compound?
Answer: 21.9 µM

Question: What about the GI50 (MCF7/ADR-RES; [1]) of the same compound?
Answer: 10 µM

Question: What about the IC (TGI) (MCF7/ADR-RES; [2]) of the same compound?
Answer: 31.6 µM

Question: And the GI50 (HS 578T; [1])?
Answer: > 100 µM

Question: What about the IC (TGI) (HS 578T; [2]) of the same compound?
Answer: > 100 µM

Question: And the GI50 (MDA-MB-435; MDA-MB-435, read-out: Log10 GI50 (converted))?
Answer: 8.13 µM

Question: And the IC (TGI) (MDA-MB-435; MDA-MB-435, read-out: Log10 TGI (converted))?
Answer: 55 µM

Question: And the GI50 (MDA-N; [1])?
Answer: 16.6 µM

Question: What about the IC (TGI) (MDA-N; [2]) of the same compound?
Answer: 43.7 µM

Question: And the GI50 (BT-549; BT-549, read-out: Log10 GI50 (converted))?
Answer: 17 µM

Question: And the IC (TGI) (BT-549; BT-549, read-out: Log10 TGI (converted))?
Answer: 38 µM

Question: And the GI50 (HOP-92; HOP-92, read-out: Log10 GI50 (converted))?
Answer: > 100 µM

Question: And the IC (TGI) (HOP-92; HOP-92, read-out: Log10 TGI)?
Answer: > 100 µM
